Reference: PubChem BioAssay (NCI)
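96-well plates; 48 h exposure; 5 concentrations. Endpoints by linear interpolation between flanking doses. Not reached: highest tested concentration assigned. Abbreviation: GI50, concentration required for 50% inhibition of growth. TGI is the concentration that stops growth completely.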

Tests used:
Assay in all cases: inhibition of tumour cell growth, NCI panel, 48 h
[1] = system: OVCAR-5 ovarian
[2] = system: SF-295 CNS
[3] = system: HL-60(TB) leukemia
[4] = system: 786-0 renal
[5] = system: M14 melanoma
[6] = system: SNB-75 CNS
[7] = system: KM12 colon
[8] = system: HCC-2998 colon

| Structure (SMILES) | GI50 [1] | TGI [1] | GI50 [2] | TGI [2] | GI50 [3] | TGI [3] | GI50 [4] | TGI [4] | GI50 [5] | TGI [5] | GI50 [6] | TGI [6] | GI50 [7] | TGI [7] | GI50 [8] | TGI [8] |
| --- | --- | --- | --- | --- | --- | --- | --- | --- | --- | --- | --- | --- | --- | --- | --- | --- |
| Cc1c(Br)c(Br)c2c3c1nc(N1CCNCC1)n3CCC2 | 1.72 µM | 3.54 µM | 1.86 µM | 3.68 µM | 2.16 µM | 5.31 µM | 2.63 µM | 7.33 µM | 1.8 µM | 3.55 µM | 1.96 µM | 4.1 µM | 1.72 µM | 3.2 µM | 1.81 µM | 3.51 µM |
| Cn1ccc(S(=O)(=O)N2CCC[C@H](Nc3nccc(-c4c(-c5cccc(O)c5)nc5occn45)n3)C2)n1 | 24.9 µM | > 100 µM | 22.3 µM | 62.1 µM | 10.8 µM | 32.3 µM | 20.1 µM | > 100 µM | 0.112 µM | 13.9 µM | 1.9 µM | > 89 µM | 18.3 µM | > 86.9 µM | 15 µM | 34.3 µM |
| CN(C)Cc1ccc(O)c(CN(C)C)n1 | – | > 100 µM | – | > 100 µM | – | – | – | > 100 µM | – | > 100 µM | – | > 100 µM | – | > 100 µM | – | – |
| CC1(C)CCC2(C(=O)O)C(O)CC3(C)C(=CCC4C5(C)CCC(OC6OCC(O)C(O)C6OC6OCC(O)C(O)C6OC6OCC(O)C(OC7OC(CO)C(O)C(O)C7O)C6O)C(C)(C)C5CCC43C)C2C1 (configuration not stated) | – | > 100 µM | – | 42.8 µM | – | 48.3 µM | – | > 100 µM | – | > 100 µM | – | 40.1 µM | – | 44.1 µM | – | > 100 µM |
| CCOC(=O)C(Cc1ccccc1)n1c(O)c(/C=N/c2ncc(Cc3ccc(Cl)cc3Cl)s2)sc1=S (configuration not stated) | 4.2 µM | > 100 µM | 2.31 µM | 6.84 µM | 2.29 µM | 7.06 µM | 3.15 µM | > 100 µM | 3.02 µM | 16.7 µM | 2.81 µM | 21.4 µM | 1.84 µM | 11.6 µM | 2.54 µM | 42.3 µM |
